Biological target: TAFIa (Homo sapiens (Human), UniProt Q96IY4)
Assay: TAFIa enzyme assay (Actichrome plasma TAFI activity kit)
Type: biochemical
Details: 15 min preincubation at room temperature, read at 420 nm, duplicate determination
Description: The prepared substances were tested for TAFIa inhibition using the Actichrome plasma TAFI activity kit from American Diagnostica (Pr. No. 874). This entailed adding 29 μl of assay buffer (20 mM Hepes, 150 mM NaCl, pH 7.4) and 10 μl of TAFIa (American Diagnostica Pr. No. 874TAFIA; […]) to 1 μl of 5 mM DMSO solution of the substance and incubating in a 96 half-well microtiter plate at room temperature for 15 minutes. The enzymic reaction was started by adding 10 μl of TAFIa developer (prediluted 1:2 with water). The time course of the reaction was followed at 420 nm in a microtiter plate reader (SpectraMax plus 384; Molecular Devices) for 15 minutes. The IC50 was calculated from the averaged values (duplicate determination) of serial dilutions of the substance with the aid of the Grafit 4 software (Erithacus Software, UK).

TAFIa, sequence (Q96IY4 115-423): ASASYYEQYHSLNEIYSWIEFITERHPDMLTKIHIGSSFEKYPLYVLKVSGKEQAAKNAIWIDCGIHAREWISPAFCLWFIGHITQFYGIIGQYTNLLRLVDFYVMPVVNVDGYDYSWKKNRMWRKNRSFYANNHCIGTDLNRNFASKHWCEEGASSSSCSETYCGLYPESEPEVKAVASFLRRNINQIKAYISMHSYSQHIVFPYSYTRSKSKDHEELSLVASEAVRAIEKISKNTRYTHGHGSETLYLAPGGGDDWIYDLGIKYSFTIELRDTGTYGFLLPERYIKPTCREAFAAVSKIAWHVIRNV

Row | Compound | IC50
1 | Nc1ccc(CC(C(=O)O)c2cn(C3CCCCC3)cn2)cn1 (stereo not drawn) [Example 1, 3-(6-Aminopyridin-3-yl)-2-(1-cyclohexyl-1H-imidazol-4-yl)propionic acid] | 30 nM
2 | Nc1ccc(CC(C(=O)O)c2cn(CC3CCCN(C(=O)C(c4ccccc4)c4ccccc4)C3)cn2)cn1 (stereo not drawn) [Example 17, 3-(6-Aminopyridin-3-yl)-2-[1-(1-diphenylacetylpiperidin-3-ylmethyl)-1H-imidazol-4-yl]-propionic acid] | 11 nM
3 | Nc1ccc(CC(C(=O)O)c2cn(C3CCNCC3)cn2)cn1 (stereo not drawn) [Example 8, 3-(6-Aminopyridin-3-yl)-2-(1-piperidin-4-yl-1H-imidazol-4-yl)propionic acid] | 1130 nM
4 | Nc1ccc(CC(C(=O)O)c2cn(Cc3csc4ccc(Cl)cc34)cn2)cn1 (stereo not drawn) [Example 27, 3-(6-Aminopyridin-3-yl)-2-[1-(5-chlorobenzo[b]thiophen-3-ylmethyl)-1H-imidazol-4-yl]-propionic acid] | 1110 nM
5 | Nc1ccc(CC(C(=O)O)c2cn(CCC3CCCN(C(=O)CCc4ccccc4)C3)cn2)cn1 (stereo not drawn) [Example 16, 3-(6-Aminopyridin-3-yl)-2-(1-{2-[1-(3-phenylpropionyl)piperidin-3-yl]ethyl}-1H-imidazol-4-yl)propionic acid] | 38 nM
6 | CC1(C)CCC(n2cnc(C(Cc3ccc(N)nc3)C(=O)O)c2)CC1 (stereo not drawn) [Example 33, 3-(6-Aminopyridin-3-yl)-2-[1-(4,4-dimethylcyclohexyl)-1H-imidazol-4-yl]propionic acid] | 3 nM
7 | Nc1ccc(CC(C(=O)O)c2cn(CCC3CCN(C(=O)C(c4ccccc4)c4ccccc4)CC3)cn2)cn1 (stereo not drawn) [Example 13, 3-(6-Aminopyridin-3-yl)-2-{1-[2-(1-diphenylacetylpiperidin-4-yl)ethyl]-1H-imidazol-4-yl}-propionic acid] | 12 nM
8 | CCCNC(=O)Nc1ccc(-n2cnc(C(Cc3ccc(N)nc3)C(=O)O)c2)cc1 (stereo not drawn) [Example 37, 3-(6-Aminopyridin-3-yl)-2-{1-[4-(3-propylureido)phenyl]-1H-imidazol-4-yl}propionic acid] | 49 nM
9 | Nc1ccc(CC(C(=O)O)c2cn(Cc3ccc(OC(F)(F)F)cc3)cn2)cn1 (stereo not drawn) [Example 25, 3-(6-Aminopyridin-3-yl)-2-[1-(4-trifluoromethoxybenzyl)-1H-imidazol-4-yl]propionic acid] | 10500 nM
10 | Nc1ccc(CC(C(=O)O)c2cn(CC(=O)NC(c3ccccc3)c3ccccc3)cn2)cn1 (stereo not drawn) [Example 10, 3-(6-Aminopyridin-3-yl)-2-{1-[(benzhydrylcarbamoyl)methyl]-1H-imidazol-4-yl}-propionic acid] | 23 nM
11 | Nc1ccc(CC(C(=O)O)c2cn(Cc3cccc(Oc4ccc(F)cc4)c3)cn2)cn1 (stereo not drawn) [Example 28, 3-(6-Aminopyridin-3-yl)-2-{1-[3-(4-fluorophenoxy)benzyl]-1H-imidazol-4-yl}propionic acid] | 1440 nM
12 | Nc1ccc(CC(C(=O)O)c2cn(CCC3CCN(C(=O)CCc4ccccc4)CC3)cn2)cn1 (stereo not drawn) [Example 18, 3-(6-Aminopyridin-3-yl)-2-(1-{2-[1-(3-phenylpropionyl)piperidin-4-yl]ethyl}1H-imidazol-4-yl)propionic acid] | 21 nM
13 | Nc1ccc(CC(C(=O)O)c2cn(C3CCCC3)cn2)cn1 (stereo not drawn) [Example 7, 3-(6-Aminopyridin-3-yl)-2-(1-cyclopentyl-1H-imidazol-4-yl)propionic acid] | 16 nM
14 | Cc1ccc(S(=O)(=O)Nc2ccc(-n3cnc(C(Cc4ccc(N)nc4)C(=O)O)c3)cc2)cc1 (stereo not drawn) [Example 38] | 50 nM
15 | Nc1ccc(CC(C(=O)O)c2cn(CC3CCCCN3C(=O)c3ccccc3)cn2)cn1 (stereo not drawn) [Example 15, 3-(6-Aminopyridin-3-yl)-2-[1-(1-benzoylpiperidin-2-ylmethyl)-1H-imidazol-4-yl]propionic acid] | 12 nM
16 | C#CCn1cnc(C(Cc2ccc(N)nc2)C(=O)O)c1 (stereo not drawn) [Example 31, 3-(6-Aminopyridin-3-yl)-2-(1-prop-2-ynyl-1H-imidazol-4-yl)propionic acid] | 870 nM
17 | Nc1ccc(CC(C(=O)O)c2cn(-c3ccc(NC(=O)Nc4ccccc4)cc3)cn2)cn1 (stereo not drawn) [Example 12, 3-(6-Aminopyridin-3-yl)-2-{1-[4-(3-phenylureido)phenyl]-1H-imidazol-4-yl}propionic acid] | 15 nM
18 | Nc1ccc(CC(C(=O)O)c2cn(C3CCN(c4ccccc4)C3=O)cn2)cn1 (stereo not drawn) [Example 9, 3-(6-Aminopyridin-3-yl)-2-[1-(2-oxo-1-phenylpyrrolidin-3-yl)-1H-imidazol-4-yl]propionic acid] | 439 nM
